From US8030360B2, “Anti-wrinkle agent” (Kemphys Ltd., priority 2004, dated 2011)

Experiments:
[1] = test system: Normal human keratinocyte; experiment: Human keratinocyte growth (amount of DNA as index); assay type: cell-based; conditions: amount of DNA as index of HK growth
Protocol: (§1) Normal human keratinocyte obtained from human chest skin (HK, Kurabo) was cultured, and the cells were added with RA or Am80 (0.01% in dimethyl sulfoxide) on the second day. The cells on the second to 13th day after the addition of the agents were used as samples. By using the amount of DNA as an index of HK growth, and by using compositional ratio (K1/K16) of differentiated keratin (k1; 68 kD) and proliferating keratin (K16; 48 kD) in one-dimension SDS-PAGE as an index of differentiation, differentiation suppression rate was determined as a value wherein the ratio of the indexes of each sample and control applied only with a solvent was subtracted from 1. […] IC50 was 10^−6 to 10^−7 M for RA, and 10^−9 M for Am80.

guinea pig skin [2] = experiment: Cumulative skin irritancy test of a retinoid on guinea pig skin; assay type: in vivo
Protocol: (§2) Histological tests were conducted to study the irritancy of a retinoid on guinea pig skin and correlation between an irritancy threshold and a retinoid action threshold. Each of male guinea pigs of approximately in a weight of 600 g was applied once every day with 1, 5, 10, 50, or 100 ppm of retinoic acid (RA) or Am80 (4-[(5,6,7,8-tetrahydro-5,5,8,8-tetramethyl-2-naphthalenyl)carbamoyl]benzoic acid) as an ethanol solution on the dorsal skin (5 days a week). As a control, only the solvent (ethanol) was applied. The skin responses were evaluated according to the following 5-step criteria, and average values were calculated for each concentration of the drugs by using results obtained from three of the guinea pigs. • 0: No skin response was observed. • 1: Slight erythema was observed. • 2: Obvious erythema was observed. • 3: Strong erythema or slight edema/crust was observed. • 4: Obvious edema/crust, or more severe changes was observed.
(§3) Further, concentration dependencies of cumulative skin irritancy of RA and Am80 for the same application period were compared.

[3] = reported in WO96/30009; cited from earlier work
[4] = test system: Normal human keratinocyte; experiment: Human keratinocyte differentiation (K1/K16 keratin ratio, SDS-PAGE); assay type: cell-based
Protocol: as §1

skin grooves = experiment: Planarization action on skin surface formation (skin groove), silicon resin replicas and image analysis; assay type: in vivo, hairless mice; conditions: 0.01% in ethanol
Protocol: Changes which appear on skin grooves after applications of RA and Am80 (each at a concentration of 0.01% in ethanol) were studied by using hairless mice (Skh-h4l, 16 weeks old, female, 5 mice per group). The applications were conducted once a day, 5 days a week, and for 30 days. As a control, only ethanol was applied. On the next day of the day of last application, replicas of skin surfaces were created by using a silicon resin, and various parameters that represent features of the shape of the skin surface were determined by using an apparatus for image analysis. […] Further, the decrease in KSD correlated to epidermal thickening.

fibroblast cells = experiment: Acceleration of EGF-dependent growth of fibroblast cells; assay type: cell-based; conditions: low serum level
Protocol: The growth of fibroblast cells, being suspended under a low serum level, is dependent on growth factors, and the growth will start by the addition of EGF. The acceleration effects of RA and Am80 on the EGF-dependent growth were evaluated. RA gave the maximum effect (40% promotion) at 10^−6 M, and Am80 gave the maximum effect (30% promotion) at 10^−8 M. The acceleration effect of Am80 (10%) was also observed at 10^−10 Ml.

guinea pig skin [5] = experiment: Histological findings of guinea pig skin at the end of the application period; assay type: in vivo
Protocol: as §2, §3

horny layer = experiment: Horny layer turnover test (dansylchloride fluorescence); assay type: in vivo, guinea pig; conditions: 50 ppm, 10 μl/1 cm diameter, once a day (FIG. 3)
Protocol: Actions on turnover of horny layer were evaluated by using guinea pigs. Hartley albino male guinea pigs of approximately 750 g in weight, whose hair was removed using depilatory wax three days prior to the experiment, were applied occlusively with 5% Vaseline ointment of dansylchloride for 24 hours using a patch test Finn Chamber, and then the skin of the guinea pigs were wiped to remove the ointment. A portable fluorometer was used for irradiation with ultraviolet rays having maximum at around 338 nm, and the fluorescent intensity of the dansylchloride was measured. Simultaneously, fluorescent intensity of an area where dansylchloride was not applied (blank value) was measured in the same manner. After the measurement of the fluorescent intensities, 10 μl/1 cm diameter of RA and Am80 at 50 ppm concentration were applied once a day. During the measurement, skin irritancy was also determined according to the criteria indicated in Example 1. […] Cumulative skin irritancy was simultaneously evaluated according to the criteria in Example 1, and the results were obtained as shown in FIG. 4.

SMILES: CC1(C)CCC(C)(C)c2cc(NC(=O)c3ccc(C(=O)O)cc3)ccc21 [Am80, 4-[(5,6,7,8-tetrahydro-5,5,8,8-tetramethyl-2-naphthalenyl)carbamoyl]benzoic acid]
- IC50 ([1]; Homo sapiens, Keratinocyte, read-out: IC50 of cell growth suppression): 1 nM
- skin responses (guinea pig skin [2]; 10 ppm or less, during this period (FIG. 2)): no skin responses
- skin response compared with retinoic acid (guinea pig skin [2]; RA and Am80 at the same concentration (FIG. 1)): much weaker skin response than retinoic acid and induces extremely slow skin response
- effect on dermatopathy caused by rays of sunlight [3]: ineffective
- differentiation suppression rates as compared to that by RA ([4]; Am80 versus RA): 1.3 to 1.7 times
- cell differentiation suppression action compared with RA ([4]; K1/K16 ratio as index of differentiation): stronger than that of RA
- concentration at which cell differentiation suppression action is also observed ([4]; as low as): 10^−8 to 10^−10 M
- epidermal thickening (skin grooves; for 30 days (FIG. 6)): obvious changes
- planarization changes of skin surface on replicas (skin grooves; once a day, 5 days a week, for 30 days): The same action was observed
- Emax at 0.01 µM (fibroblast cells; Fibroblast, at 10^−8 M, read-out: maximum effect on EGF-dependent growth (promotion)): 30%
- acceleration effect on EGF-dependent growth (fibroblast cells; at 10^−10 Ml): 10%
- skin thickening and inflammatory changes compared with RA (guinea pig skin [5]): more slight skin thickening and inflammatory changes even when applied at 10 times higher concentration
- action on horny cell layer turnover (horny layer): almost no effect

SMILES: CC1=C(/C=C/C(C)=C/C=C/C(C)=C/C(=O)O)C(C)(C)CCC1 [RA, retinoic acid, reference compound]
- IC50 of cell growth suppression [1]: 10^−6 to 10^−7 M
- irritancy threshold (cumulative skin irritancy) (guinea pig skin [2]; same application period, FIG. 2 (9th day of application)): less than 5 ppm
- Emax at 1 µM (fibroblast cells; Fibroblast, at 10^−6 M, read-out: maximum effect on EGF-dependent growth (promotion)): 40%
